Data published in ChEMBL document CHEMBL4017441, “Mitigating the inhibition of human bile salt export pump by drugs: opportunities provided by physicochemical property modulation, in silico modeling, and structural modification” (Drug Metab Dispos, 2012).
pIC50: −log10 of the molar value. *1 amine or outer side, *2 acyl side, *3 side chain or, on linkers, in order; H or OH if unused. Where a SMILES comes first, the peptide text is derived from it. Bridges are numbered along the chain shown (N, C = ends). [ ]: non-standard residue; d: D form. The star is where a group is joined. ξ: configuration not given here. X2 = N=C1NC(O)C[C@H]([C@H](N[*:1])C(=O)[*:2])N1; ΔAla(Z-3-ureido) = NC(=O)N/C=C(\N)C(=O)O; X1 = N=C1NCCC(C(N[*:1])C(=O)[*:2])N1; ξβ3hOrn = NCCCC(N)CC(=O)*; Dap = NC[CH](N)C(=O)O

Biological target: Bile salt export pump (Homo sapiens, UniProt O95342)
Assay type: ADME

SMILES	pIC50
O=S(=O)(CCOCCc1ccccc1)NCCNCCc1ccc(O)c2nc(O)sc12	4.45
C[C@@H](COc1ccc(N2CCN(c3ccncc3)CC2)cc1)CC(=O)O	< 3.00
CN(C)C(=O)c1ccc(S(=O)(=O)c2ccc(NC(=O)[C@@](C)(O)C(F)(F)F)c(Cl)c2)cc1	> 4.89
CC1=C(CC(=O)O)c2cc(F)ccc2/C1=C\c1ccc([S+](C)[O-])cc1 (stereo not drawn)	4.20
COC(=O)[C@H](Cc1ccccc1)NC(=O)[C@@H](N)CC(=O)O	< 3.00
CCS[C@]1(SC)CC[C@H]2[C@@H]3CCC4=CC(=O)C=C[C@]4(C)[C@@]3(F)[C@@H](O)C[C@@]21C	> 5.00
CCCc1nn(C)c2c(=O)[nH]c(-c3cc(S(=O)(=O)N4CCN(C)CC4)ccc3OCC)nc12	4.78
Cc1ccc2c(c1)c(-c1ccnc3c(C)cccc13)c(C)n2CC(=O)O	> 5.00
CCCCCC(O)C1C(=O)OC(C)C(O)/C=C/C=C/C=C/C=C/C=C(/C)C(O)CC(O)CC(O)CC(O)CC(O)CC(O)CC1O (stereo not drawn)	3.79
CC(=O)NS(=O)(=O)c1ccc(NC(=O)c2ccccc2C(=O)O)cc1	< 3.00
Cc1ccc2c(c1)c(-c1ccnc3c(C(F)(F)F)cccc13)c(C)n2CC(=O)O	> 5.00
CNC[C@H](O)Cc1ccc(Cl)c(C(=O)NCC23CC4CC(CC(C4)C2)C3)c1	3.88
Cc1cc(-c2ccc(N3C[C@H](Cn4ccnn4)OC3=O)cc2F)on1	< 3.00
Nc1ccccc1C(=O)NCC(=O)O	< 3.00
COc1ccccc1N1CCN(CCCNc2cc(=O)n(C)c(=O)n2C)CC1	> 4.95
Nc1ccc([As](=O)(O)O)cc1	< 3.00
O=c1[nH]c2c(O)ccc(CCNCCCS(=O)(=O)CCCOCCc3ccccc3)c2s1	4.49
CCCSc1nc(N)c2ncn([C@@H]3O[C@H](COP(=O)(O)OP(=O)(O)C(Cl)(Cl)P(=O)(O)O)[C@@H](O)[C@H]3O)c2n1	< 3.00
NC(=O)CN1CCCC1=O	< 3.00
Cc1n[nH]c(C)c1Cc1sc2c(c1C(=O)N1C[C@H](O)CO1)c(=O)n(C)c(=O)n2CC(C)C	3.61
Cc1ccc2c(c1)c(-c1ccnc3c(Cl)cccc13)c(C)n2CC(=O)O	> 5.00
COc1nc(C)cnc1NS(=O)(=O)c1cccnc1-c1ccc(CC(C)C)cc1	4.71
CCCc1ncc(-c2ccnc(Nc3ccc(S(=O)(=O)NCCOC)cc3)n2)n1C(C)C	> 5.00
NS(=O)(=O)c1ccc(-c2ccc(OC[C@H](O)CCc3cccnc3)cc2)s1	< 3.00
CC1(C)COC(=O)C1O (stereo not drawn)	< 3.00

SMILES	pIC50
Cc1ccc(OC(C)(C)[C@H]2OC[C@@H](C/C=C\CCC(=O)O)[C@@H](c3cccnc3)O2)c(C#N)c1	> 5.00
CCC(=O)OC(OP(=O)(CCCCc1ccccc1)CC(=O)N1CC(C2CCCCC2)CC1C(=O)O)C(C)C (stereo not drawn)	> 4.87
CCOCCNS(=O)(=O)c1ccc(Nc2nccc(-c3cnc(C)n3C(C)C)n2)cc1	> 5.00
Cc1ccc(NC(=O)c2cccc3c2oc2ccccc23)cc1NC(=O)c1cccc(CN2CCN(C)CC2)c1	> 5.00
Cc1ccc(CCCN[C@H](C)CO)cc1C(=O)NCC12CC3CC(CC(C3)C1)C2	4.18
Nc1ccc(CN2C(=O)C(Nc3ccc(N4CCOCC4)cc3)=C(c3ccccc3)C2=O)cn1	> 5.00
CCCc1ncc(-c2ccnc(Nc3ccc(S(=O)(=O)NCCOC)cc3)n2)n1CC	> 5.00
O=C(O)c1cc2sccc2n1Cc1ccc(Cl)c(Cl)c1	4.86
Cc1n[nH]c(C)c1Cc1sc2c(c1C(=O)N1C[C@H](O)CO1)c(=O)n(C)c(=O)n2C(C)C	3.15
CN(C)c1ncnc2c1ncn2C1OC(CO)C(N)C1O (stereo not drawn)	< 3.00
COc1ccc(-n2[nH]c(=O)c3[nH]c4cc(Cl)ccc4c(=O)c3c2=O)c(C)c1	3.31
Cc1cc2cc(C(=O)NC3Cc4ccccc4N(C[C@@H](O)CO)C3=O)[nH]c2s1 (stereo partly drawn)	> 4.96
CCc1cccc(C)c1CNC1=C2NC(C)=C(C)N2CC(C(N)=O)=C1	> 5.00
CCN(CC)C(=O)c1ccc(C(=C2CCNCC2)c2ccccc2)cc1	3.98
CC1=C(C/C=C(\C)CCCC(C)CCCC(C)CCCC(C)C)C(=O)c2ccccc2C1=O (stereo not drawn)	< 3.00
Cc1ccc(C(=O)N2CC3CNCC(C2)O3)cc1NC(=O)CC12CC3CC(CC(C3)C1)C2	4.23
CCCSc1nc(N)c2ncn([C@@H]3O[C@H](CO)[C@@H](O)[C@H]3O)c2n1	< 3.00
CC(C)(C)C(=O)Oc1ccc(S(=O)(=O)Nc2ccccc2C(=O)NCC(=O)O)cc1	3.85
N=C1NCCC(C2NC(=O)/C(=C/NC(N)=O)NC(=O)C(CNC(=O)CC(N)CCCN)NC(=O)C(CO)NC(=O)C(N)CNC2=O)N1 (stereo not drawn) (H-[Dap]S[Dap](ξβ3hOrn)[ΔAla(Z-3-ureido)][X1]; lactam 1-C; configuration not given here)	< 3.00
CN1CCc2cccc3c2[C@H]1Cc1ccc(O)c(O)c1-3 (stereo in doubt; form 1) [APOMORPHINE]	3.67
CN1CCc2cccc3c2[C@H]1Cc1ccc(O)c(O)c1-3 (stereo in doubt; form 2) [APOMORPHINE]	3.41
N=C1NC(O)C[C@H]([C@@H]2NC(=O)/C(=C/NC(N)=O)NC(=O)[C@H](CO)NC(=O)[C@H](CO)NC(=O)[C@@H](NC(=O)CC(N)CCCN)CNC2=O)N1 (stereo partly drawn) (ξβ3hOrn-[Dap]SS[ΔAla(Z-3-ureido)][X2]; lactam 1-C)	< 3.00
N[C@H]1C[C@@H]1c1ccccc1 [(+)-TRANYLCYPROMINE]	3.99
COC(=O)C1=C(C)NC(C)=C(C(=O)OC(C)C)[C@@H]1c1cccc2nonc12 [(R)-ISRADIPINE]	> 5.00
C[C@@](O)(CS(=O)(=O)c1ccc(F)cc1)C(=O)Nc1ccc(C#N)c(C(F)(F)F)c1 [(S)-BICALUTAMIDE]	> 5.00

SMILES	pIC50
CCC(=N\O)/C(C)=C/c1ccc(F)cc1 [A-079]	4.57
CCN(CC)CCNC(=O)c1ccc(NC(C)=O)cc1 [ACECAINIDE]	< 3.00
CC(=O)c1ccc2c(c1)N(CCCN(C)C)c1ccccc1S2 [ACEPROMAZINE]	3.95
CC(=O)Nc1ccccc1 [ACETANILIDE]	< 3.00
CC(=O)Nc1cc([As](=O)(O)O)ccc1O [ACETARSONE]	< 3.00
CC(=O)OCC[N+](C)(C)C [ACETYLCHOLINE]	< 3.00
CC(=O)Nc1ccc(CC(=O)O)cc1 [ACTARIT]	< 3.00
Nc1ncnc2nc[nH]c12 [ADENINE]	< 3.00
CCN(CC)CCOC(=O)C(c1ccccc1)c1ccccc1 [ADIPHENINE]	3.80
NC(=O)c1ccc([N+](=O)[O-])cc1Cl [AKLOMIDE]	< 3.00
CCC[S+]([O-])CCCN(CC)CC(O)COc1ccc(C#N)cc1 (stereo not drawn) [ALMOKALANT]	4.25
CN(C)c1nc(N(C)C)nc(N(C)C)n1 [ALTRETAMINE]	< 3.00
N=C(N)NC(=O)c1nc(Cl)c(N)nc1N [AMILORIDE]	< 3.00
CCC1(c2ccc(N)cc2)CCC(=O)NC1=O (stereo not drawn) [AMINOGLUTETHIMIDE]	< 3.00
Nc1ccc(C(=O)NCC(=O)O)cc1 [AMINOHIPPURIC ACID]	< 3.00
CCOC(=O)C1=C(COCCN)NC(C)=C(C(=O)OC)C1c1ccccc1Cl (stereo not drawn) [AMLODIPINE]	4.80
CCN(CC)Cc1cc(Nc2ccnc3cc(Cl)ccc23)ccc1O [AMODIAQUINE]	4.11
Clc1ccc2c(c1)C(N1CCNCC1)=Nc1ccccc1O2 [AMOXAPINE]	3.64
CCCc1ncc(C[n+]2ccccc2C)c(N)n1 [AMPROLIUM ION]	< 3.00
c1ccc(CN(CC2=NCCN2)c2ccccc2)cc1 [ANTAZOLINE]	< 3.00
Cc1cc(=O)n(-c2ccccc2)n1C [ANTIPYRINE]	< 3.00
COC(=O)C1=CCCN(C)C1 [ARECOLINE]	< 3.00
C[C@H]1C[C@H]2[C@@H]3CCC4=CC(=O)C=C[C@]4(C)[C@@]3(Cl)[C@@H](O)C[C@]2(C)[C@@]1(O)C(=O)CO [BECLOMETHASONE]	4.63
NS(=O)(=O)c1cc2c(cc1C(F)(F)F)NC(Cc1ccccc1)NS2(=O)=O (stereo not drawn) [BENDROFLUMETHIAZIDE]	4.16
CC(C(=O)O)c1ccc2oc(-c3ccc(Cl)cc3)nc2c1 (stereo not drawn) [BENOXAPROFEN]	3.98

SMILES	pIC50
CCCCOc1cc(C(=O)OCCN(CC)CC)ccc1N [BENOXINATE]	3.51
NC(CO)C(=O)NNCc1ccc(O)c(O)c1O (stereo not drawn) [BENSERAZIDE]	3.93
O=C(O)c1ccc(NC(=O)[C@H](Cc2ccc(O)cc2)NC(=O)c2ccccc2)cc1 [BENTIROMIDE]	3.63
CCOC(=O)c1ccc(N)cc1 [BENZOCAINE]	< 3.00
CCCCNc1ccc(C(=O)OCCOCCOCCOCCOCCOCCOCCOCCOCCOC)cc1 [BENZONATATE]	> 5.00
O=C(Nc1ccc(C(=O)O)c(O)c1)c1ccccc1 [BENZOYLPAS]	< 3.00
NS(=O)(=O)c1cc2c(cc1Cl)N=C(CSCc1ccccc1)NS2(=O)=O [BENZTHIAZIDE]	4.24
CC(C)COCC(CN(Cc1ccccc1)c1ccccc1)N1CCCC1 (stereo not drawn) [BEPRIDIL]	> 4.78
CC1=C(/C=C/C(C)=C/C=C/C(C)=C/C=C/C=C(C)/C=C/C=C(C)/C=C/C2=C(C)CCCC2(C)C)C(C)(C)CCC1 [BETA CAROTENE]	> 5.00
C[N+](C)(C)CC(=O)O [BETAINE]	< 3.00
CC(C)NCC(O)COc1ccc(CCOCC2CC2)cc1 (stereo not drawn) [BETAXOLOL]	< 3.00
CC(C[N+](C)(C)C)OC(N)=O (stereo not drawn) [BETHANECHOL]	< 3.00
CC(C)(Oc1ccc(CCNC(=O)c2ccc(Cl)cc2)cc1)C(=O)O [BEZAFIBRATE]	3.74
CC(=O)Oc1ccc(C(c2ccc(OC(C)=O)cc2)c2ccccn2)cc1 [BISACODYL]	4.25
COc1ccccc1Oc1c(NS(=O)(=O)c2ccc(C(C)(C)C)cc2)nc(-c2ncccn2)nc1OCCO [BOSENTAN]	> 4.60
CC[N+](C)(C)Cc1ccccc1Br [BRETYLIUM]	< 3.00
CN(Cc1cc(Br)cc(Br)c1N)C1CCCCC1 [BROMHEXINE]	4.69
CCCCNc1cc(C(=O)O)cc(S(N)(=O)=O)c1Oc1ccccc1 [BUMETANIDE]	3.28
CC(NC(C)(C)C)C(=O)c1cccc(Cl)c1 (stereo not drawn) [BUPROPION]	< 3.00
O=C1CC2(CCCC2)CC(=O)N1CCCCN1CCN(c2ncccn2)CC1 [BUSPIRONE]	4.22
CS(=O)(=O)OCCCCOS(C)(=O)=O [BUSULFAN]	< 3.00
CCCCN(CCCC)CCCOC(=O)c1ccc(N)cc1 [BUTACAINE]	3.31
CCCCOC(=O)c1ccc(N)cc1 [BUTAMBEN]	3.74
